Patent US20110263696A1, “PROANTHOCYANIDINS FROM CINNAMON AND ITS WATER SOLUBLE EXTRACT INHIBIT TAU AGGREGATION” (priority 2007, published 2011)

Biological target: T1, tau187 (Homo sapiens, UniProt P10636)
T1 construct: his; made in house; host or cells: bacteria
Assay: Turbidity (OD350) assay of heparin-induced aggregation, tau187
Type: biochemical
Settings: trimer 12.5 uM as pure trimer or as whole extract (0.22 mg/mL CE); OD 350 (FIG. 17)
Procedure: FIG. 15A. […] 50 μM Tau^187 was incubated with 0.11 mg/ml heparin (18 kDa) at 23° C. Aggregation was monitored by turbidity (OD350). Cinnamaldehyde was present at a final concentration of 0, 50 and 100 μM. FIG. 15B. Electron microscopy of tau fibers in the presence of cinnamaldehyde (CA). Tau fibers were visualized by electron microscopy after 5 hrs of aggregation in the presence of: 0 CA (left panel); B) 100 uM CA (right panel). […] FIG. 15 C. Trans-cinnamaldehyde chemical structure. FIG. 16A. […] 50 uM tau187 was incubated with 0.11 mg/mL heparin (18 kDa) at 23° C. Epicatechin was untreated, treated with 10 mM NH4OH for 10 min at 95° C. then neutralized, or treated with 100 U of mushroom tyrosinase (Sigma) for 10 min. Epicatechin was added to the reaction at a final concentration of 25 uM. Fiber formation was monitored by OD 350. FIG. 16B. epicatechin and catechin chemical structures. FIG. 17A. HPLC analysis of proanthocyanidin A-type trimer, A) purified or B) in whole cinnamon extract. The trimer corresponds to the major peak at ˜40 min. Areas underneath the peaks in panels A and B each correspond to 6150 pmoles. […] Fiber formation was monitored by OD 350. Concentrations of A-trimer in pure form and in whole cinnamon extract (CE) were normalized by absorbance measurements of the A-trimer resolved by HPLC. […]

T1 sequence (P10636 572-758 limits assumed): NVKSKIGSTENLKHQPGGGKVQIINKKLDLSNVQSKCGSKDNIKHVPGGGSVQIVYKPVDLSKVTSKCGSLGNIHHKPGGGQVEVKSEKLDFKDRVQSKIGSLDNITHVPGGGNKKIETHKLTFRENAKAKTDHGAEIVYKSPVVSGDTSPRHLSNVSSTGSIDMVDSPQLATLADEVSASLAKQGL

- Inhibition of tau187 aggregation, whole extract vs pure trimer at equal trimer content: inhibits tau polypeptide aggregation
Substance: A-linked proanthocyanidin trimer [A-type trimer]
